Test results reported in patent US10377763B2, “Morphinan derivative and medical usage thereof” (UNIVERSITY OF TSUKUBA, priority 2015, dated 2019).
Where “and” joins values, the source holds several entries; their conditions need not be identical. Identical values can stand only once.

Experiments:
human OX1R = human OX1R (Homo sapiens (Human), UniProt O43613); assay: Measurement of antagonistic activity against orexin receptors (intracellular calcium, CHOOX1R cells); type: cell-based
Procedure: (§1) The Chinese hamster ovary (CHO) cell lines CHOOX1R and CHOOX2R were established by modifying CHO cells to constantly express the NFAT-luciferase gene and either the human OX1R or human OX2R gene. Those cells were plated at 10,000 cells/well in 96-well multiplates with DMEM (manufactured by Sigma-Aldrich Co. LLC) supplemented with 5% FBS (manufactured by Thermo Scientific Inc.) and incubated at 37° C. and 5% CO2 for 48 hours. After removal of the medium, 100 μL of an assay buffer (20 mM HEPES (manufactured by Sigma-Aldrich Co. LLC), Hank's balanced salt solution (manufactured by Gibco), 0.1% BSA (manufactured by Sigma-Aldrich Co. LLC), 2.5 mM probenecid acid (manufactured by Wako Pure Chemical Industries, Ltd.), pH 7.4) containing 5 μM Fura-2AM (manufactured by Cayman Chemical Co.) was added to each well, and incubated at 37° C. and 5% CO2 for 60 minutes. After removal of the buffer containing Fura-2AM, 75 μL of the assay buffer was added to each well. Then, […] of the assay buffer containing a test compound at various concentrations and OX-A (manufactured by Peptide Institute, Inc.) was added to start the reaction. The change in intracellular calcium ion concentration induced by the reaction was evaluated by the ratio of fluorescent intensities, which were measured at a wavelength of 510 nm based on the two wavelength excitation approach using FDSS 7000 (manufactured by Hamamatsu Photonics K.K.) with fluorescence excitation at 340 nm and 380 nm. A concentration-response curve on the antagonistic activity was plotted from the values of maximal fluorescent intensity ratio determined when various concentrations of a test compound were added in the presence of […] of OX-A, where a value of maximal fluorescent intensity ratio determined by adding 300 pM of OX-A alone corresponds to 100% and a value of maximal fluorescent intensity ratio determined by adding the assay buffer alone corresponds to 0%. Based on the resulting non-linear regression curve, the 50% maximal inhibitory concentration (IC50) was calculated. Each test compound was dissolved in DMSO to a concentration of 10 mM (the final concentration of DMSO was 1%), and then diluted with the assay buffer to give a final concentration of 3.0×10^−10 M to 1.0×10^−5 M (a common ratio of 3), while OX-A was diluted to a final concentration of 300 pM. The experiment was performed in quadruplicate plates, and the results of the four independent measurements were averaged to give the value of each reaction, and then the IC50 of a sample was calculated. If the sample number was 2 or more, the averaged IC50 was used.

human OX2R = human OX2R (Homo sapiens (Human), UniProt O43614); assay: Measurement of antagonistic activity against orexin receptors (intracellular calcium, CHOOX2R cells); type: cell-based
Procedure: as §1

[1] = test system: male ICR mice with morphine physical dependence; assay: Evaluation of the prophylactic effect on drug dependence (naloxone-induced withdrawal syndrome in morphine-dependent mice); type: in vivo; details: 10 mg/kg repeatedly with morphine Day 1-5, naloxone 3 mg/kg s.c.
Procedure: Increasing doses of morphine hydrochloride dissolved in saline were administered subcutaneously to 7-week-old male ICR mice twice daily (dosing interval: about 12 hours) for four days (dose: Day 1, 8 mg/kg followed by 15 mg/kg; Day 2, 20 mg/kg followed by 25 mg/kg; Day 3, 30 mg/kg followed by 35 mg/kg; Day 4, 40 mg/kg followed by 45 mg/kg). On Day 1 to Day 4, the mice were administered intraperitoneally with the compound of Example 45 (Compound 26) at 10 mg/kg or saline, the solvent of the compound, 30 minutes prior to every first administration of morphine hydrochloride. On Day 5, the mice were administered subcutaneously with the compound of Example 45 (Compound 26) at 10 mg/kg or saline, and 30 minutes later administered subcutaneously with morphine hydrochloride at 45 mg/kg as the final dose. Two hours after the final administration of morphine hydrochloride, the mice were administered subcutaneously with naloxone hydrochloride at 3 mg/kg; symptoms of withdrawal syndrome (jumping, body shake, ptosis, forepaw tremor, rearing, body weight loss, and diarrhea) which appeared 60 minutes after administration of naloxone hydrochloride were observed. Body weight was measured before and every 15 minutes after naloxone hydrochloride administration. Moreover, diarrhea was graded according to a three-point scoring system based on the appearance of feces: normal feces (Normal), loose feces (Slightly), and liquid feces or liquid diarrhea (Severe). The other symptoms of withdrawal syndrome were evaluated based on the presence or absence of their manifestation. Statistical analysis was performed using chi square test and two-way analysis of variance and setting the significance level at p<0.05.

[2] = test system: male ICR mice with morphine physical dependence; assay: Evaluation of the therapeutic effect on drug dependence (naloxone-induced withdrawal syndrome in morphine-dependent mice); type: in vivo; details: 10 mg/kg i.p. 30 minutes prior to naloxone 3 mg/kg s.c., after repeated morphine
Procedure: Increasing doses of morphine hydrochloride dissolved in saline were administered subcutaneously to 7-week-old male ICR mice twice daily (dosing interval: about 12 hours) for four days (dose: Day 1, 8 mg/kg followed by 15 mg/kg; Day 2, 20 mg/kg followed by 25 mg/kg; Day 3, 30 mg/kg followed by 35 mg/kg; Day 4, 40 mg/kg followed by 45 mg/kg). On Day 5, the mice were administered subcutaneously with morphine hydrochloride at 45 mg/kg as the final dose. Two hours after the final administration of morphine hydrochloride, the mice were administered subcutaneously with naloxone hydrochloride at 3 mg/kg. The mice were administered intraperitoneally with the compound of Example 45 (Compound 26) at 10 mg/kg or saline, the solvent of the compound, 30 minutes prior to the administration of naloxone hydrochloride. Symptoms of withdrawal syndrome (jumping, body shake, ptosis, forepaw tremor, rearing, body weight loss, and diarrhea) which appeared 60 minutes after the last dose of naloxone hydrochloride were observed. Body weight was measured before and every 15 minutes after naloxone hydrochloride administration. Moreover, diarrhea was graded according to a three-point scoring system based on the appearance of feces: normal feces, loose feces, and liquid feces or liquid diarrhea. The other symptoms of withdrawal syndrome were evaluated based on the presence or absence of their manifestation. Statistical analysis was performed using chi square test and two-way analysis of variance and setting the significance level at p<0.05.

Sequence of human OX1R (O43613 whole entry): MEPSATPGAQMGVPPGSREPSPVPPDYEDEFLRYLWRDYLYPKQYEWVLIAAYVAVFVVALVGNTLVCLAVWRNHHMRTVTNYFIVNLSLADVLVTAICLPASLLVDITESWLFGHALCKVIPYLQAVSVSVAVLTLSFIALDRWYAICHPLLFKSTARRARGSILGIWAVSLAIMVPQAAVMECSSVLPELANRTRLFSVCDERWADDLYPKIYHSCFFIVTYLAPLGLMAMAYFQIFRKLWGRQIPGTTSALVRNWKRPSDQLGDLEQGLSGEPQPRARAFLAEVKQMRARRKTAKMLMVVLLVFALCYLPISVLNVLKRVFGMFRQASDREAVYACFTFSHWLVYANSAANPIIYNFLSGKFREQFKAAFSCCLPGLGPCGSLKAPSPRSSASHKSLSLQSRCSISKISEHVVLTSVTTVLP
Sequence of human OX2R (O43614 whole entry): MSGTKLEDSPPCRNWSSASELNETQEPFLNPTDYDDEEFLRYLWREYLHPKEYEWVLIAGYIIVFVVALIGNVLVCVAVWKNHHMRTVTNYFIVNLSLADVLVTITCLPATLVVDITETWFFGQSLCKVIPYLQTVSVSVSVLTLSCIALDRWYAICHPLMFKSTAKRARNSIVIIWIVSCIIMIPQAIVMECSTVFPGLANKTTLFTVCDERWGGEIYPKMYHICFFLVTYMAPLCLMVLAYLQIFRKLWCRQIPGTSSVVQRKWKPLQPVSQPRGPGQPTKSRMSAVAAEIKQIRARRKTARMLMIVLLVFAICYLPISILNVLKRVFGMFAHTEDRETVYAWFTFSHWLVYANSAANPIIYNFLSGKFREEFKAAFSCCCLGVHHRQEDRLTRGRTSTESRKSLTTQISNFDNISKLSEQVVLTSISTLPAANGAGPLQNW

COc1ccc2c3c1O[C@H]1[C@H](N(C)C(=O)/C=C/c4ccccn4)CC[C@@]4(O)[C@@H](C2)N(S(=O)(=O)c2ccccc2N(C)C)CC[C@]314 [Example 45, (E)-N-[(4R,4aS,7R,7aR,12bS)-3-{[2-(dimethylamino)phenyl]sulfonyl}-4a-hydroxy-9-methoxy-2,3,4,4a,5,6,7,7a-octahydro-1H-4,12-methanobenzofuro[3,2-e]isoquinolin-7-yl]-N-methyl-3-(pyridin-2-yl)acrylamide]
IC50 (human OX1R): 3.61 nM
antagonistic activity against human OX1 receptor (in words) (human OX1R; summary of Table 6): potent and selective antagonistic activity
IC50 (human OX2R): > 10000 nM
Body shake: number of animals with withdrawal syndrome/total number of animals [1]: 6/8
Diarrhea score Liquid feces or liquid diarrhea (number of corresponding animals/total number of animals) [1]: 2/8
Diarrhea score Loose feces (number of corresponding animals/total number of animals) [1]: 4/8
Diarrhea score Normal feces (number of corresponding animals/total number of animals) [1]: 2/8
Forepaw tremor: number of animals with withdrawal syndrome/total number of animals [1]: 6/8
Jumping: number of animals with withdrawal syndrome/total number of animals [1]: statistically significantly suppressed and 1/8*
Ptosis: number of animals with withdrawal syndrome/total number of animals [1]: tendency to suppress and 4/8
Rearing: number of animals with withdrawal syndrome/total number of animals [1]: tendency to suppress and 5/8
diarrhea (withdrawal syndrome, in words) [1]: statistically significantly suppressed
body weight loss (withdrawal syndrome) ([1]; FIG. 1): statistically significantly suppressed
Body shake: number of animals with withdrawal syndrome/total number of animals [2]: 7/13
Diarrhea score Liquid feces or liquid diarrhea (number of corresponding animals/total number of animals) [2]: 3/13
Diarrhea score Loose feces (number of corresponding animals/total number of animals) [2]: 8/13
Diarrhea score Normal feces (number of corresponding animals/total number of animals) [2]: 2/13
Forepaw tremor: number of animals with withdrawal syndrome/total number of animals [2]: 11/13
Jumping: number of animals with withdrawal syndrome/total number of animals [2]: statistically significantly suppressed and 2/13**
Ptosis: number of animals with withdrawal syndrome/total number of animals [2]: tendency to suppress and 3/13
Rearing: number of animals with withdrawal syndrome/total number of animals [2]: 11/13
diarrhea (withdrawal syndrome, in words) [2]: statistically significantly suppressed
body weight loss (withdrawal syndrome) ([2]; FIG. 2): statistically significantly suppressed
